Test results as given in patent US20210255193A1, “LYSINE REACTIVE PROBES AND USES THEREOF” (The Scripps Research Institute, priority 2017, published 2021).
Each block holds one compound with its values, some of them ahead of it.

Columns and labels:
Assay in all cases: competitive isoTOP-ABPP
Type in all cases: binding
[1] = target: T1, NUDT22 Nucleoside diphosphate-linked moiety X motif 22 (Homo sapiens, UniProt Q9BRQ3); settings: 50 uM, 231 sol, in vitro; for R value (DMSO/fragment) for probe 1 labeling: Q9BRQ3_K60
T1 construct: isoTOP-ABPP experiments performed in cell lysates (in vitro); endogenous in cells; host or cells: soluble proteome of human cancer cell lines (MDA-MB-231; Ramos and Jurkat also prepared)
T1 sequence (Q9BRQ3 1-303): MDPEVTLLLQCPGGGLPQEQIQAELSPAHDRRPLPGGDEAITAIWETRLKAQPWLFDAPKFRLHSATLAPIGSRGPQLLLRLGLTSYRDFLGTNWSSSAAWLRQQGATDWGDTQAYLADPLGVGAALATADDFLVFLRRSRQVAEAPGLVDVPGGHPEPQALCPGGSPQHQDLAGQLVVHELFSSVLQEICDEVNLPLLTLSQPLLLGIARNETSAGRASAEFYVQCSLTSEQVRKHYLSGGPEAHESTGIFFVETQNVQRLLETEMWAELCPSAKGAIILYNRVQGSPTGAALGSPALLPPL
Method in brief: (§1)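 Lysine engagement is reported as R, the MS1 peak-area ratio of heavy-tagged DMSO to light-tagged compound samples. Final fragment concentrations were 50 μM for activated esters and 100 μM for guanidinylating agents; STP-alkyne probe 0.1 mM, 1 h.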

[2] = target: T2, NT5DC1 5-nucleotidase domain-containing protein 1 (Homo sapiens, UniProt Q5TFE4); settings: 50 uM, 231 sol, in vitro; for R value (DMSO/fragment) for probe 1 labeling: Q5TFE4_K123
T2 construct: isoTOP-ABPP experiments performed in cell lysates (in vitro); endogenous in cells; host or cells: soluble proteome of human cancer cell lines (MDA-MB-231; Ramos and Jurkat also prepared)
T2 sequence (Q5TFE4 1-455): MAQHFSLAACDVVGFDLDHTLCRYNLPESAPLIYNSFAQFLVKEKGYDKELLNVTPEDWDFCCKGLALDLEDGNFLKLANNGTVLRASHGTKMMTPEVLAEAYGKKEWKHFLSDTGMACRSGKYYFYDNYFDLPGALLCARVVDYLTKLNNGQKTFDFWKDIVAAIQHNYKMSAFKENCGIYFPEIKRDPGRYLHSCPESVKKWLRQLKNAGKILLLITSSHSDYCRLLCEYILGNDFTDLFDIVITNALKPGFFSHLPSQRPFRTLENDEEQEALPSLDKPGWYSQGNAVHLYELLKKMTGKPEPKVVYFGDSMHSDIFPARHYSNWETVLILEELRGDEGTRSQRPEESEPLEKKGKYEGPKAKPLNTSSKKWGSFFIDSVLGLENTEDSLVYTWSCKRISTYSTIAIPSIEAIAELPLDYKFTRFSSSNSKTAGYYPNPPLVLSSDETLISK
Method in brief: as §1

[3] = target: T3, LDHB L-lactate dehydrogenase B chain (Homo sapiens, UniProt P07195); settings: 50 uM, 231 sol, in vitro
T3 construct: isoTOP-ABPP experiments performed in cell lysates (in vitro); endogenous in cells; host or cells: MDA-MB-231 soluble lysate
T3 sequence (P07195 whole entry): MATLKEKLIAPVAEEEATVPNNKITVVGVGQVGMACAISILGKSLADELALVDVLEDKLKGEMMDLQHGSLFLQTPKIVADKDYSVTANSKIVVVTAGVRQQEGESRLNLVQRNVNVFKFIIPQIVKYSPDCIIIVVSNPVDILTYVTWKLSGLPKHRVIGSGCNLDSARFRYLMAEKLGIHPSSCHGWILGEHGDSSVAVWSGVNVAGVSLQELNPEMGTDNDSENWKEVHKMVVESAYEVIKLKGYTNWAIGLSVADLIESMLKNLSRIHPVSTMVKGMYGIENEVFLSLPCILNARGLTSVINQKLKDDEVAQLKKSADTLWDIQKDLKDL
Method in brief: as §1

[4] = target: T4, ATP6V1F V-type proton ATPase subunit F (Homo sapiens, UniProt Q16864); settings: 50 uM, 231 sol, in vitro; for R value (DMSO/fragment) for probe 1 labeling: Q16864_K6
T4 construct: isoTOP-ABPP experiments performed in cell lysates (in vitro); endogenous in cells; host or cells: soluble proteome of human cancer cell lines (MDA-MB-231; Ramos and Jurkat also prepared)
T4 sequence (Q16864 whole entry, the tested form may be a part): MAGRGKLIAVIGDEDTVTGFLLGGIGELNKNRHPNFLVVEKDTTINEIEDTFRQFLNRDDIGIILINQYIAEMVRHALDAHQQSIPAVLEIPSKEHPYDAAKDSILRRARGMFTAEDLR
Method in brief: as §1

SMILES: O=C(CCc1cn(-c2ccccc2)nc1-c1ccccc1)Oc1c(F)c(F)c(F)c(F)c1F [fragment 19, Pentafluorophenyl 3-(1,3-diphenyl-1H-pyrazol-4-yl)propanoate]
R value (DMSO/fragment) for probe 1 labeling [1]: 0.9
R value (DMSO/fragment) for probe 1 labeling [2]: 20.0

SMILES: COc1cc(CCC(=O)Oc2c(F)c(F)c(F)c(F)c2F)cc(OC)c1OC [fragment 23, Pentafluorophenyl 3-(3,4,5-trimethoxyphenyl)propanoate]
R value (DMSO/fragment) for probe 1 labeling [2]: 1.5

SMILES: O=C(CCc1coc2cc(F)ccc2c1=O)Oc1c(F)c(F)c(F)c(F)c1F [fragment 26, Pentafluorophenyl 3-(7-fluoro-4-oxo-4H-chromen-3-yl)propanoate]
isoTOP-ABPP reactivity ratio at lysine P07195_K82 [3]: 0.7
isoTOP-ABPP reactivity ratio at lysine Q9BRQ3_K60 [1]: 0.8

SMILES: CCn1cc(C(=O)Oc2c(F)c(F)c(F)c(F)c2F)c(=O)c2ccc(C)nc21 [fragment 28, Pentafluorophenyl 1-ethyl-7-methyl-4-oxo-1,4-dihydro-1,8-naphthyridine-3-carboxylate]
isoTOP-ABPP reactivity ratio at lysine Q9BRQ3_K60 [1]: 1.0
isoTOP-ABPP reactivity ratio at lysine Q5TFE4_K123 [2]: 1.2

SMILES: O=C(CCc1cn(-c2ccccc2)nc1-c1ccccc1)Oc1ccc([N+](=O)[O-])cc1[N+](=O)[O-] [fragment 29, 2,4-Dinitrophenyl 3-(1,3-diphenyl-1H-pyrazol-4-yl)propanoate]
isoTOP-ABPP reactivity ratio at lysine Q16864_K6 [4]: 0.8
isoTOP-ABPP reactivity ratio at lysine Q9BRQ3_K60 [1]: 0.8
isoTOP-ABPP reactivity ratio at lysine Q5TFE4_K123 [2]: 1.2

SMILES: O=C(Oc1ccc([N+](=O)[O-])cc1[N+](=O)[O-])C(c1ccccc1)c1ccccc1 [fragment 30, 2,4-Dinitrophenyl 2,2-diphenylacetate]
isoTOP-ABPP reactivity ratio at lysine P07195_K82 [3]: 20.0
isoTOP-ABPP reactivity ratio at lysine P07195_K244 [3]: 1.2
isoTOP-ABPP reactivity ratio at lysine Q16864_K6 [4]: 20.0

SMILES: O=C(Oc1ccc([N+](=O)[O-])cc1[N+](=O)[O-])c1cc(C(F)(F)F)cc(C(F)(F)F)c1 [fragment 31, 2,4-Dinitrophenyl 3,5-bis(trifluoromethyl)benzoate]
isoTOP-ABPP reactivity ratio at lysine Q9BRQ3_K60 [1]: 1.1

The next lines start with the values.

R value (DMSO/fragment) for probe 1 labeling ([3]; P07195_K82): 1.2
R value (DMSO/fragment) for probe 1 labeling ([3]; P07195_K244): 1.0
R value (DMSO/fragment) for probe 1 labeling [4]: 1.1
R value (DMSO/fragment) for probe 1 labeling [1]: 0.8
R value (DMSO/fragment) for probe 1 labeling [2]: 1.0
SMILES: O=C(Oc1c(F)c(F)c(F)c(F)c1F)C(c1ccccc1)c1ccccc1 [fragment 20, Pentafluorophenyl 2,2-diphenylacetate]

R value (DMSO/fragment) for probe 1 labeling ([3]; P07195_K244): 1.0
R value (DMSO/fragment) for probe 1 labeling [4]: 1.1
R value (DMSO/fragment) for probe 1 labeling [1]: 0.8
R value (DMSO/fragment) for probe 1 labeling [2]: 1.2
SMILES: O=C(Oc1c(F)c(F)c(F)c(F)c1F)c1cc(C(F)(F)F)cc(C(F)(F)F)c1 [fragment 21, Pentafluorophenyl 3,5-bis(trifluoromethyl)benzoate]

R value (DMSO/fragment) for probe 1 labeling ([3]; P07195_K82): 0.8
R value (DMSO/fragment) for probe 1 labeling ([3]; P07195_K244): 1.0
R value (DMSO/fragment) for probe 1 labeling [4]: 1.1
SMILES: Cn1cc(CC(=O)Oc2c(F)c(F)c(F)c(F)c2F)c2ccccc21 [fragment 22, Pentafluorophenyl 2-(1-methyl-1H-indol-3-yl)acetate]

isoTOP-ABPP reactivity ratio at lysine Q5TFE4_K123 [2]: 1.1
SMILES: O=C(Oc1c(F)c(F)c(F)c(F)c1F)C1CCN(C(=O)OCc2ccccc2)CC1 [fragment 24, 1-Benzyl 4-(pentafluorophenyl) piperidine-1,4-dicarboxylate]

isoTOP-ABPP reactivity ratio at lysine Q9BRQ3_K60 [1]: 0.8
SMILES: O=C(Oc1c(F)c(F)c(F)c(F)c1F)c1ccc2ccccc2n1 [fragment 25, Pentafluorophenyl quinoline-2-carboxylate]

isoTOP-ABPP reactivity ratio at lysine Q9BRQ3_K60 [1]: 1.2
SMILES: O=C(CN1C(=O)c2ccccc2C1=O)Oc1c(F)c(F)c(F)c(F)c1F [fragment 27, Pentafluorophenyl 2-(1,3-dioxoisoindolin-2-yl)acetate]
